These results are taken from PMC10573892, “β-Lactam TRPM8 Antagonists Derived from Phe-Phenylalaninol Conjugates: Structure–Activity Relationships and Antiallodynic Activity” (International Journal of Molecular Sciences, 2023).

Assay [1] deals with T1, rat TRPM8 channel (rTRPM8) (Rattus norvegicus, UniProt Q8R455).
T1 construct: expressed in transfected cells
Nature of the assay: Ca2+ microfluorimetry, menthol-induced Ca2+ entry in HEK293 cells overexpressing rTRPM8. The conditions noted are these: for IC50: rTRPM8, HEK293, activation by 100 µM menthol. The class given is cell-based. As for the experimental part: The diastereomeric 1,4,4-trisubstitutes β-lactams were evaluated as modulators of the TRPM8 channel by calcium microfluorimetry assays. These assays use a Human Embryonic Kidney 293 (HEK293) cell line that stably overexpressed rat TRPM8 channel (rTRPM8). […] Three separated experiments in triplicate were used.
The initial biological evaluation of this series of 1,3,4,4-tetrasubstituted β-lactams was performed by calcium microfluorimetry assays using the indicated HEK293 cell line overexpressing rTRPM8 channels.
(§1) Calcium fluorometry, Patch-Clamp assays and in vivo experiments were performed using the methodology previously described for TRPM8 [35] or TRPM3 [61]. In the Patch -Clamp experiments, the intracellular pipette solution contained (in mM) 140 KCl, 5 EGTA, and 10 mM HEPES, adjusted to pH 7.2 with KOH, and the extracellular solution contained (in mM) 140 NaCl, 2 CaCl2, 1 MgCl2, 10 D-glucose and 10 HEPES, adjusted to pH 7.4 with NaOH. Selectivity against TRPV1, TRPV3, TRPA1 and ASIC3 was subcontracted to Eurofins-CEREP or Eurofins-PANLABS (see ref. [35] for more details).

Assay [2] deals with oxaliplatin-induced cold hypersensitivity. Kind of assay: Oxaliplatin-induced cold allodynia in mice (acetone drop test). The class given is in vivo.
Text: It is established that treatments with the chemotherapeutic drug oxaliplatin (OXA) induce painful peripheral neuropathy, known as CIPN, which becomes more pronounced in cold conditions. The TRPM8 channel has been implicated in mouse models of CIPN pain induced by OXA [19, 51]. In fact, the OXA-induced peripheral neuropathy mouse model is being used for the pharmacological characterization of TRPM8 antagonists. For this peripheral neuropathy assay, mice were subcutaneously (s.c.) injected with OXA at a dose of 6 mg/kg dose on days 1, 3 and 5 to male mice to induce increased sensitivity to cold, which can be monitored through the acetone drop test.
Consequently, compounds 34 and 35 have been tested for their ability to alleviate OXA-induced cold hypersensitivity after intraplantar administration (i.pl., 3, 1 and 0.1 μg). […] This effect was observed 15 min post-administration and sustained up to 60 min.
as §1
Figure 4 Effects of compounds 34 (A) and 35 (B) on the oxaliplatin (OXP)-induced cold hypersensitivity (drop acetone test). Peripheral neuropathy was induced in male mice by injecting OXA (6 mg/kg, s.c.) on days 1, 3 and 5. Control animals were treated with vehicle. Compounds 34 (A) and 35 (B) (3 µg/i.pl., 1 µg/i.pl. and 0.1 µg/i.pl.) were administered to the OXP-treated animals, and the time-course of cold hypersensitivity was measured. Data are given ± SEM (n = 5). Statistical analysis, comparing with oxaliplatin-treated mice, was performed by two-way ANOVA followed by post hoc Bonferroni test by multiple comparisons: * […], ** p < 0.01, **** p < 0.0001.

Assay [3] has as its target T2, hTRPM8 (Homo sapiens, UniProt Q7Z2W7).
T2 construct: expressed in transfected cells; host or cells: HEK293
Nature of the assay: Ca2+ microfluorimetry in HEK293 cells expressing human TRPM8. The class given is cell-based. The conditions noted are these: activation by 100 µM menthol; read-out: Ca^2+ Microfluorimetry Assays hTRPM8 IC50. The method, then: To further characterize this family of compounds, calcium microfluorimetry assays were conducted using the HEK293 cell line, which expresses the human isoform of the TRPM8 channel. Amide derivatives 34 and 35 were selected, and their outcomes were compared with those of the model compound 1 (Table 4). […] This behavior is not particular of these β-lactams, but it is similar to those observed for other TRPM8 antagonists.
as §1

Assay [4] relates to dorsal root ganglia (DRG) sensory neurons. Nature of the assay: Resting membrane potential of DRG sensory neurons (current clamp Patch-Clamp). The class given is cell-based. The conditions noted are these: 10 µM. As for the experimental part:
We also investigated the effect of β-lactams derivatives on the resting membrane potential (RMP) of dorsal root ganglia (DRG) sensory neurons.
(A) Representative recordings of resting membrane potential measured under current clamp configuration. The traces show the action potentials (APs) firings from DRG neurons elicited by 100 μM menthol (left trace) or in the presence of vehicle (0.5% DMSO) or the β-lactams derivatives ([…]). (B) Changes in the Vm in the absence and in the presence of 10 μM of the β-lactams derivatives. Data were analyzed by one-way ANOVA followed by Bonferroni post hoc test for multiple comparisons (ns = no significance, **** p < = 0.0001) and given as mean ± SEM; n ≥ 40 cells from 4 cultures.

Assay [5] concerns the target hTRPM3 (Homo sapiens, UniProt Q9HCF6). Nature of the assay: TRPM3 channel Ca2+ microfluorimetry (pregnenolone sulfate 50 µM). The class given is cell-based. The conditions noted are these: 10 µM; read-out: degree of inhibition in the Ca^2+ influx induced by pregnenolone sulfate (TRPM3). The method, then: First, some TRP channels that play a role in temperature integration and nociception were selected, including hTRPV1, hTRPV3, hTRPA1 and TRPM3. Additionally, the evaluation encompassed the hASIC3 channel with widespread distribution within the peripheral nervous system and contributions to the excitability of primary sensory neurons. In each instance, the compound was subjected to evaluation at a consistent concentration of 10 µM.
as §1

Assay [6] concerns the target T3, rTRPM8 (Rattus norvegicus, UniProt Q8R455).
T3 construct: expressed in transfected cells
Kind of assay: Patch-Clamp electrophysiology on single HEK293 cells expressing rat TRPM8. The class given is cell-based. The conditions noted are these: activation by 100 µM menthol; holding voltage −60 mV.
Text: A recent research study using Patch-Clamp, among other techniques, established that menthol occupies a cavity within the TRPM8 S1–S4 transmembrane helix, with the OH group forming an H-bond with the δ-NH of R842 residue, and Van der Waals interactions among the methyl groups of the ^iPr moiety and residues I846 and L843 [41].
This is evident by a negligible current at negative potentials and a linear intensification of the ohmic current at positive voltages. When applying compound 34 at a concentration of […], a noticeable reduction in menthol-induced activity at depolarizing voltages was observed (indicated by the red line) compared to menthol alone. Dose–response relationships for both tested compounds were established through triplicate experiments at various concentrations, applying a holding voltage of −60 mV (as shown in Figure 2B).
as §1
Figure 2 Compound 34 blocks TRPM8-mediated responses evoked by menthol in rTRPM8-expressing HEK293 cells. (A) IV curves obtained after exposure to vehicle solution (green trace), 100 µM menthol (blue trace) and 100 µM menthol + 10 µM 34 (red trace). Peak current data were expressed as pA/pF (to allow comparison among different size cells). Each point is the mean ± SEM of n = 15. (B) Concentration/response curves for rTRPM8 current blockade by 34 at a holding voltage of −60 mV. […]

Each structure is given as a SMILES string.

T1 sequence (Q8R455 whole entry): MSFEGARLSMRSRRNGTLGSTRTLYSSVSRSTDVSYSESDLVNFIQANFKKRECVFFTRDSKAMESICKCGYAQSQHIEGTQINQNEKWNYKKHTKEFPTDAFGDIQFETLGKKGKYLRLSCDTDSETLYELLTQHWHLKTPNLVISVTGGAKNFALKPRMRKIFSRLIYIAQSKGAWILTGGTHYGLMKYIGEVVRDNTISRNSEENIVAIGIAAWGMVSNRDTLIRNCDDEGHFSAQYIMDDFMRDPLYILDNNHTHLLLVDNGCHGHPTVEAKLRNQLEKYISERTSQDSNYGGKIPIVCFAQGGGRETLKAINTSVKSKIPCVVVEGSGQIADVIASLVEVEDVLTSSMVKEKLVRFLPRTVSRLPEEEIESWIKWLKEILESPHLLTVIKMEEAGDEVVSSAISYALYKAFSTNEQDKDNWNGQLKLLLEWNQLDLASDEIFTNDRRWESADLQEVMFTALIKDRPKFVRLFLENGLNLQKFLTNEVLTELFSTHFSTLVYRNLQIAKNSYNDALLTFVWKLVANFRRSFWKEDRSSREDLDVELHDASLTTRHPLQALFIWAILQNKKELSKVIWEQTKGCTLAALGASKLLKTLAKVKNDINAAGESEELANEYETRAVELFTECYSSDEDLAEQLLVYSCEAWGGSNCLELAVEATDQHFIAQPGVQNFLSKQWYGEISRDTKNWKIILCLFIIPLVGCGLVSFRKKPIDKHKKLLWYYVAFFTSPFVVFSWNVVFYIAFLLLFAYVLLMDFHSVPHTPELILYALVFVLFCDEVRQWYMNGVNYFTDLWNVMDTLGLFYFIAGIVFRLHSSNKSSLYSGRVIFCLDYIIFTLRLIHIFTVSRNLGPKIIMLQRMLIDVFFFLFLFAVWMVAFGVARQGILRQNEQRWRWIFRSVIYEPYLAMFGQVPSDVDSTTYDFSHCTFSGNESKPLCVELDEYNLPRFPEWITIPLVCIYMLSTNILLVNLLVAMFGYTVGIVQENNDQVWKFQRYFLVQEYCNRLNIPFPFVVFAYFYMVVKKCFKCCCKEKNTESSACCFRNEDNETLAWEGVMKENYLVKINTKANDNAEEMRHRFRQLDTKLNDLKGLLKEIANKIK
Sequence of hTRPM3 (Q9HCF6 whole entry): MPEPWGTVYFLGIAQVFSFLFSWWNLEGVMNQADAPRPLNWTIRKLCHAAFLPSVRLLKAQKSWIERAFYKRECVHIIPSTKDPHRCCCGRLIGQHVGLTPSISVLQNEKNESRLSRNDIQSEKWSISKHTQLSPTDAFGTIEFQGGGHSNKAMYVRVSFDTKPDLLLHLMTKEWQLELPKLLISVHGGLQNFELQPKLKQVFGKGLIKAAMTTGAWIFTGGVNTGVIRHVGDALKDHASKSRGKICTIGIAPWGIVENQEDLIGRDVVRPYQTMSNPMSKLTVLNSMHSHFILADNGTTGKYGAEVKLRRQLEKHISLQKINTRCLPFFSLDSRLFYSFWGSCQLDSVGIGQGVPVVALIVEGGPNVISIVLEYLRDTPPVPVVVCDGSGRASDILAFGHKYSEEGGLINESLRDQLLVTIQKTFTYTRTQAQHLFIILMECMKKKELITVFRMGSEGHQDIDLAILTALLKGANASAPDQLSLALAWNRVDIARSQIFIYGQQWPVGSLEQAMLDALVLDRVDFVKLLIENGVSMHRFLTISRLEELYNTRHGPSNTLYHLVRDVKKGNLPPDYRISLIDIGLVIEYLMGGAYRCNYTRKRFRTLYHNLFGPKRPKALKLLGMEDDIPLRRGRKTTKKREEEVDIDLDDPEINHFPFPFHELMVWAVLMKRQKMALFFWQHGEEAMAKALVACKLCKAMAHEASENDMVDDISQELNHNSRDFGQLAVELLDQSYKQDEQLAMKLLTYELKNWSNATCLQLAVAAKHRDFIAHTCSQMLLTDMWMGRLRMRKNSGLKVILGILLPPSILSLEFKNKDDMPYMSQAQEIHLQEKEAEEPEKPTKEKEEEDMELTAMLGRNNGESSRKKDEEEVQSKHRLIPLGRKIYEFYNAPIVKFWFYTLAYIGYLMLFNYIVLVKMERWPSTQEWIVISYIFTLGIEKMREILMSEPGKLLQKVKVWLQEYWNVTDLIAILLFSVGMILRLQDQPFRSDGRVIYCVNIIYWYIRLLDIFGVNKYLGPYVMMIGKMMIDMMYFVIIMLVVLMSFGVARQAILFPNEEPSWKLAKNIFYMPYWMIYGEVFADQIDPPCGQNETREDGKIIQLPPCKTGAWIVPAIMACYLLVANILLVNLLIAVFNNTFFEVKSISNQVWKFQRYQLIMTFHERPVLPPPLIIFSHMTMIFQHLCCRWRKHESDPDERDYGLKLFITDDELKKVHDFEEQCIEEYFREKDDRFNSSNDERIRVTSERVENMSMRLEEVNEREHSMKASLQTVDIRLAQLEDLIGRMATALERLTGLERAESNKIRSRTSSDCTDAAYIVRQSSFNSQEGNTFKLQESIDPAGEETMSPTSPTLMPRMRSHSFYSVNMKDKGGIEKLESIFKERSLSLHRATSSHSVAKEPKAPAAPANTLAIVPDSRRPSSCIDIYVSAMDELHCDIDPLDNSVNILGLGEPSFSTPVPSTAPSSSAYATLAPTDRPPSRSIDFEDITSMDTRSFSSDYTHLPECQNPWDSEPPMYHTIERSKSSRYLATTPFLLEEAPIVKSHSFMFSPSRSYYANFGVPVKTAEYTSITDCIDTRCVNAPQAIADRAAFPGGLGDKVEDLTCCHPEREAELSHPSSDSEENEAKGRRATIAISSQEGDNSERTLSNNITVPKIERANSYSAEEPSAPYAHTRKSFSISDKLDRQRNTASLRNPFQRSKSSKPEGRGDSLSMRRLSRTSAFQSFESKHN
T3 sequence (Q8R455 whole entry): as the sequence (Q8R455 whole entry) above
T2 sequence (Q7Z2W7 whole entry): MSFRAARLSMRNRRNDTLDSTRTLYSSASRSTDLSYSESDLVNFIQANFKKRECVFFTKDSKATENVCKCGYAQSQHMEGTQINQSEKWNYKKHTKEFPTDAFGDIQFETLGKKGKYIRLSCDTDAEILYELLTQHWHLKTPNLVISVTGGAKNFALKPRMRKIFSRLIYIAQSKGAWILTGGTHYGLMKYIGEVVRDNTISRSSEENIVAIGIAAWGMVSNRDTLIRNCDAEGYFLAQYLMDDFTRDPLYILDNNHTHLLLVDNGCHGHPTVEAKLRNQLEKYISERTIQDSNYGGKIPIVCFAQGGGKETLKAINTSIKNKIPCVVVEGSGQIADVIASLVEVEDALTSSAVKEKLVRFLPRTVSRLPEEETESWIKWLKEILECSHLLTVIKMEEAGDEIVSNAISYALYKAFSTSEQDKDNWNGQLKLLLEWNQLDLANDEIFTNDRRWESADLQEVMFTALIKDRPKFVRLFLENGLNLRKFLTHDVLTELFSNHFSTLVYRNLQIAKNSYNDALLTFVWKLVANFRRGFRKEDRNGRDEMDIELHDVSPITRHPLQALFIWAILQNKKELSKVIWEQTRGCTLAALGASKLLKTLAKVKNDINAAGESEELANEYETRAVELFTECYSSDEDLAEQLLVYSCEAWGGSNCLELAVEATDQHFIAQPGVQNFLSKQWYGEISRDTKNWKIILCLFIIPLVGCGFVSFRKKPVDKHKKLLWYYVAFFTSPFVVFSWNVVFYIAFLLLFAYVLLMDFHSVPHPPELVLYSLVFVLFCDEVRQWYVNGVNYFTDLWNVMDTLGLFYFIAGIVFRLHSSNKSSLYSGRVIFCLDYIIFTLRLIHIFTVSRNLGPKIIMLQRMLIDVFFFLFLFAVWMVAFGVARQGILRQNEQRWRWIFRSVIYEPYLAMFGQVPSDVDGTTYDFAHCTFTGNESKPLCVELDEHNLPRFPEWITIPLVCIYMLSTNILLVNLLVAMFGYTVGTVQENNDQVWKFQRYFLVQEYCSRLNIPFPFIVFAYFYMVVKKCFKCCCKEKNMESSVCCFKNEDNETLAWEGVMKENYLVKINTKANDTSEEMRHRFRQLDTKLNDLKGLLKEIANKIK

Turning to `C[C@@H]1C(=O)N(C[C@H](Cc2ccccc2)NCc2cccc(-c3ccccc3)c2)[C@]1(Cc1ccccc1)C(=O)OC(C)(C)C` [Compound 40, 4S-Benzyl-4-(terc-butoxy)carbonyl-3S-methyl-1-[(2’S-N-(3′′-biphenyl)methylamino-3’-phenyl)prop-1′-yl]-2-oxoazetidine], the IC50 (in general, the midpoint of a concentration-inhibition curve) in assay [1] (Table 3) is 6.36 ± 1.41 µM.
For `CC(C)CNC(=O)[C@]1(Cc2ccccc2)[C@H](C)C(=O)N1C[C@H](Cc1ccccc1)NCc1ccc2ccccc2c1` [Compound 45, 4S-Benzyl-4-[N-(iso-butyl)-carbamoyl]-3S-methyl-1-[(2′S-(2′′-naphtylmethyl)amino-3′-phenyl)prop-1′-yl]-2-oxoazetidine], the IC50 in assay [1] (Table 3) was found to be 3.56 ± 1.4 µM.
Take `O=C1C[C@@]2(Cc3ccccc3)C(=O)N[C@@H](Cc3ccccc3)CN12` [Compound 11a, (3S,6S)-3,6-dibenzyl-1,4-diazabicyclo[4.2.0]octane-5,8-dione]: in assay [1] (HEK293, at 50 μM), the inhibition (as a rule, the percentage by which the read-out fell short of the control) at 50 µM was under 50%.
`C[C@@H]1C(=O)N(C[C@H](Cc2ccccc2)NCc2ccc(-c3ccccc3)cc2)[C@]1(Cc1ccccc1)C(=O)OC(C)(C)C` [Compound 41, 4S-Benzyl-4-terc-butoxycarbonyl-3S-methyl-1-[(2’S-N-(4′′-biphenyl)methylamino-3’-phenyl)prop-1′-yl]-2-oxoazetidine] returned an IC50 in assay [1] (Table 3) of 9.26 ± 1.41 µM.
For `C[C@@H]1C(=O)N(C[C@H](Cc2ccccc2)N(Cc2ccccc2)Cc2ccccc2)[C@]1(Cc1ccccc1)C(=O)NCc1ccccc1` [Compound 35, 4S-Benzyl-4-[N-(benzyl)-carbamoyl]-3S-methyl-1-[(2′S-dibenzylamino-3′-phenyl)prop-1′-yl]-2-oxoazetidine], in assay [2] (i.pl., observed from 15 min post-administration), the “time the antiallodynic effect is sustained” value is reported as “up to 60 min”. For the same compound, the “effect on cold-induced paw licking” value in assay [2] (male mice, OXA 6 mg/kg s.c. days 1, 3, 5, i.pl. 3, 1 and 0.1 μg) is “dose-dependent and significant reduction”. The IC50 in assay [3] amounted to 3.33 ± 1.28 µM; in assay [6], 0.48 ± 1.33 µM; in assay [1] (Table 3), 0.49 ± 1.27 µM. The “effect on resting membrane potential (RMP)” value in assay [4] is “did not alter the RMP”. The inhibition at 10 µM in assay [5] is 4.1 ± 10.8%.
`CC(C)CNC(=O)[C@]1(Cc2ccccc2)[C@H](C)C(=O)N1C[C@H](Cc1ccccc1)NCc1cccc(-c2ccccc2)c1` [Compound 42, 4S-Benzyl-4-[N-(iso-butyl)-carbamoyl]-3S-methyl-1-[(2′S-(3′′-phenylbencil)amino-3′-phenyl)prop-1′-yl]-2-oxoazetidine]: in assay [1] (Table 3), half-maximal inhibition (IC50) was put at 2.19 ± 1.36 µM.
For `O=C1CC(Cc2ccccc2)(C(=O)NCc2cccnc2)N1C[C@H](Cc1ccccc1)N(Cc1ccccc1)Cc1ccccc1` (stereo partly shown) [9a,b], the IC50 in assay [1] (Table 1) stood at 10.7 ± 1.38 µM.
Still for that read-out and setting: then `O=C1CC(Cc2ccccc2)(C(=O)NCc2ccccc2)N1C[C@H](Cc1ccccc1)N(Cc1ccccc1)Cc1ccccc1` (stereo partly shown) [5a,b], with 0.71 ± 1.27 µM.
With `O=C1CC(Cc2ccccc2)(C(=O)NCc2ccc(Cl)c(Cl)c2)N1C[C@H](Cc1ccccc1)N(Cc1ccccc1)Cc1ccccc1` (stereo partly shown) [6a,b], the “antagonist activity” value in assay [1] (relative to benzylamide 5a,b) is “notable reduction in antagonist activity”.
Take `COC(=O)C1(Cc2ccccc2)CC(=O)N1C[C@H](Cc1ccccc1)N(Cc1ccccc1)Cc1ccccc1` (stereo partly shown) [2a,b]: in assay [1] (Table 1), half-maximal inhibition (IC50) required 0.15 µM.
Regarding `CC(C)CNC(=O)C1(Cc2ccccc2)CC(=O)N1C[C@H](Cc1ccccc1)N(Cc1ccccc1)Cc1ccccc1` (stereo partly shown) [4a,b], the midpoint of inhibition in assay [1] (Table 1), the IC50, lay at 0.71 ± 1.2 µM.
In assay [1] (Table 3), `C[C@@H]1C(=O)N(C[C@H](Cc2ccccc2)NCc2ccccc2)[C@]1(Cc1ccccc1)C(=O)OC(C)(C)C` [Compound 37, 4S-Benzyl-4-(terc-butoxy)carbonyl-3S-methyl-1-[(2’S-N-benzylamino-3’-phenyl)prop-1′-yl]-2-oxoazetidine] came in with an IC50 of 3.06 ± 1.25 µM.
For the compound `CC(C)CNC(=O)[C@]1(Cc2ccccc2)[C@H](C)C(=O)N1C[C@H](Cc1ccccc1)NCc1cccc(F)c1` [Compound 43, 4S-Benzyl-4-[N-(iso-butyl)carbamoyl]-3S-methyl-1-[(2′S-(3′′-fluorobenzyl)amino-3′-phenyl)prop-1′-yl]-2-oxoazetidine], it took 4.03 ± 1.35 µM to reach half-maximal inhibition in assay [1] (Table 3) (IC50).
Still for that read-out and setting: then `CC(C)CNC(=O)[C@]1(Cc2ccccc2)[C@H](C)C(=O)N1C[C@H](Cc1ccccc1)NCc1cccc(Br)c1` [Compound 44, 4S-Benzyl-4-[N-(iso-butyl)carbamoyl]-3S-methyl-1-[(2′S-(3′′-bromobenzyl)amino-3′-phenyl)prop-1′-yl]-2-oxoazetidine], with 3.27 ± 1.31 µM.
As for `O=C1CC(Cc2ccccc2)(C(=O)Nc2cccnc2)N1C[C@H](Cc1ccccc1)N(Cc1ccccc1)Cc1ccccc1` (stereo partly shown) [7a,b], in assay [1] (Table 1), the IC50 was found to be 11.6 ± 1.3 µM.
Still for that read-out and setting: then `O=C1CC(Cc2ccccc2)(C(=O)NCc2ccccn2)N1C[C@H](Cc1ccccc1)N(Cc1ccccc1)Cc1ccccc1` (stereo partly shown) [8a,b], with 1.99 ± 1.26 µM.
